{"source": "paper PMC3534870", "about": "(Bioorganic & medicinal chemistry letters, 2012)", "key": {"[1]": {"assay": "Solubility", "assay_type": "physicochemical", "conditions": "20hr"}, "[2]": {"molecular_target": "T1, FXR (Homo sapiens, UniProt Q96RI1)", "T1 sequence (Q96RI1 262-486 limits assumed)": "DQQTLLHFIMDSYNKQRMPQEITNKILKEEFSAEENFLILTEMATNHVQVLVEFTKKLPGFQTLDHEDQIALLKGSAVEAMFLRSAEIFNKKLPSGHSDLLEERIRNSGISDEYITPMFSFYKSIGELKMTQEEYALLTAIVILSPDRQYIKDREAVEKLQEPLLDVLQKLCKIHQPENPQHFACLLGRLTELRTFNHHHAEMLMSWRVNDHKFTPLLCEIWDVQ", "assay": "Gal4 DBD-NR LBD cotransfection assay, FXR", "assay_type": "cell-based", "conditions": "data not shown"}, "[3]": {"molecular_target": "T2, RORα (Homo sapiens, UniProt P35398)", "T2 sequence (P35398 272-510 limits assumed)": "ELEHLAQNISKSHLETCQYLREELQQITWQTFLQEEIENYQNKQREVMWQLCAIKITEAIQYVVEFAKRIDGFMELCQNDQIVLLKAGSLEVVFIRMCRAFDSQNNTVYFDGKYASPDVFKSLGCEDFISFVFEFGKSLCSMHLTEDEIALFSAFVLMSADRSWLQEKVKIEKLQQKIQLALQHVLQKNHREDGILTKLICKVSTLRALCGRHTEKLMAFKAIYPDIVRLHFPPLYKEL", "assay": "Gal4 DBD-NR LBD cotransfection assay, RORα", "assay_type": "cell-based", "conditions": "data not shown"}, "[4]": {"assay": "CNS exposure: plasma and brain levels in mice", "conditions": "t = 6h"}, "[5]": {"molecular_target": "p450 3A4 (Homo sapiens, UniProt P08684)", "sequence (P08684 whole entry)": "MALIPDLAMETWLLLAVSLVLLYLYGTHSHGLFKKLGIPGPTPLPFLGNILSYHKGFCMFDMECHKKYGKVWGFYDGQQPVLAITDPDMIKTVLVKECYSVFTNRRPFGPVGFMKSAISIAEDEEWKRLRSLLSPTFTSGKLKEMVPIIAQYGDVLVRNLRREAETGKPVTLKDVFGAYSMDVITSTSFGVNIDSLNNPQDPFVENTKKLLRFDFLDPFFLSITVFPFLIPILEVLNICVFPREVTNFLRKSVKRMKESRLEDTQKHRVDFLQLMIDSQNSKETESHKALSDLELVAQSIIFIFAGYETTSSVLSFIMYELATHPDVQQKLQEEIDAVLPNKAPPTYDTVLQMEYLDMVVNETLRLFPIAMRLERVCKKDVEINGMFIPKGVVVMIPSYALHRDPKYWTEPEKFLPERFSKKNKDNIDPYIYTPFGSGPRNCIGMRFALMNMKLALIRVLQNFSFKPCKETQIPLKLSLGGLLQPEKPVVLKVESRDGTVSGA", "assay": "p450 inhibition 3A4", "assay_type": "in vitro ADME", "conditions": "10 µM drug"}, "[6]": {"molecular_target": "p450 2C9 (Homo sapiens, UniProt P11712)", "sequence (P11712 whole entry)": "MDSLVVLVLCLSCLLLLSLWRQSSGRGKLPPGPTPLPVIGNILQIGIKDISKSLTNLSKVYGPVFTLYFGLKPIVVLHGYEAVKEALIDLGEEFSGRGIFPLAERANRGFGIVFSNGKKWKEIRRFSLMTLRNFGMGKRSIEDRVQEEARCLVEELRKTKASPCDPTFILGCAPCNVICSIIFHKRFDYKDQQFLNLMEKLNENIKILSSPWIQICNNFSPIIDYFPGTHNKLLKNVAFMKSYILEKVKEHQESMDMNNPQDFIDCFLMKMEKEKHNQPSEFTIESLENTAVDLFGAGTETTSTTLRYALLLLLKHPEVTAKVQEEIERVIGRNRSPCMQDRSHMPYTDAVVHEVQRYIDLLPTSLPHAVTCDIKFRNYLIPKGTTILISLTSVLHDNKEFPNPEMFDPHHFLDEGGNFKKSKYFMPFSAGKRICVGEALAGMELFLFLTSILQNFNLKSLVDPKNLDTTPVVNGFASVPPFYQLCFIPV", "assay": "p450 inhibition 2C9", "assay_type": "in vitro ADME", "conditions": "10 µM drug"}, "[7]": {"molecular_target": "T3, LXRα (Homo sapiens, UniProt Q13133)", "T3 sequence (Q13133 209-447 limits assumed)": "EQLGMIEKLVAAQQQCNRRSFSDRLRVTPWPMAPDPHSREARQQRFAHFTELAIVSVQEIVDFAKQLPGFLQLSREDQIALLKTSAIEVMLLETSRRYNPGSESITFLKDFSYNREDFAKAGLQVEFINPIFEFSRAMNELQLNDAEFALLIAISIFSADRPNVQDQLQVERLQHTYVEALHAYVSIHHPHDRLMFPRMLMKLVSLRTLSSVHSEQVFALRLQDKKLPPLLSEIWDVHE", "assay": "Gal4 DBD-NR LBD cotransfection assay, LXRα", "assay_type": "cell-based", "conditions": "data not shown"}, "[8]": {"molecular_target": "T4, GST-RORγ (Homo sapiens, UniProt P51449)", "T4 sequence (P51449 269-508 limits assumed)": "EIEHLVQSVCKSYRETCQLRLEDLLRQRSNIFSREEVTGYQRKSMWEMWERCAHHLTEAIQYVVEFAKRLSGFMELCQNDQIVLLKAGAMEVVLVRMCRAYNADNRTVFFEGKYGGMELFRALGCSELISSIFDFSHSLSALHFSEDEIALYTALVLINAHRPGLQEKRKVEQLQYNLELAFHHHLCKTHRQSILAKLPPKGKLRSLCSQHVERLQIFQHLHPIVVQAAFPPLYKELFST", "assay": "Radioligand binding", "conditions": "versus 6p"}}, "data": [{"smiles": "COc1cc(O)c(C(CC(=O)N2CC(C)CC(C)C2)c2ccc3c(c2)OCO3)c(OC)c1", "note": "(centres unmarked) [Compound 1]", "values": [{"measurement": "Solubility pH 7.4", "setting": "[1]; 100 µM solution shaken in PBS pH 7.4, room temperature", "result": "low to modest"}, {"measurement": "Solubility pH 5.0", "setting": "[1]; 100 µM solution shaken in Sodium Citrate Buffer pH 5.0, room temperature", "result": "low to modest"}, {"measurement": "activity on FXR", "setting": "[2]", "result": "did not show any activity"}, {"measurement": "activity on RORα", "setting": "[3]", "result": "did not show any activity"}, {"measurement": "[Plasma]", "setting": "[4]; 10 mg/kg IP in 10:10:80 DMSO:Tween:water", "result": "limited"}, {"measurement": "b.p. (%) brain penetration", "setting": "[4]; 10 mg/kg IP", "result": "good"}, {"measurement": "p450 % inhibition 3A4", "setting": "[5]", "result": "high"}, {"measurement": "p450 % inhibition 2C9", "setting": "[6]", "result": "high"}, {"measurement": "activity on LXRα", "setting": "[7]", "result": "did not show any activity"}]}, {"smiles": "COc1ccc(C(CC(=O)NCc2ccccc2)c2c(O)cc(OC)cc2OC)cc1", "note": "(centres unmarked) [Compound 6k]", "values": [{"measurement": "RORγ activity in words (binding assay)", "setting": "[8]", "result": "loss of activity"}]}, {"smiles": "COc1ccc(C(CC(=O)N2CCOCC2)c2c(O)cc(OC)cc2OC)cc1", "note": "(centres unmarked) [Compound 6l]", "values": [{"measurement": "RORγ activity in words (binding assay)", "setting": "[8]", "result": "loss of activity"}]}, {"smiles": "COc1ccc(C(CC(=O)N2CCCCC2)c2c(O)cc(OC)cc2OC)cc1", "note": "(centres unmarked) [Compound 6m]", "values": [{"measurement": "RORγ activity in words (binding assay)", "setting": "[8]", "result": "loss of activity"}]}, {"smiles": "COc1ccc(C(CC(=O)NC2CCCC2)c2c(O)cc(OC)cc2OC)cc1", "note": "(centres unmarked) [Compound 6n]", "values": [{"measurement": "RORγ activity in words (binding assay)", "setting": "[8]", "result": "loss of activity"}]}, {"smiles": "COc1ccc(C(CC(=O)N2CCCC2)c2c(O)cc(OC)cc2OC)cc1", "note": "(centres unmarked) [Compound 6o]", "values": [{"measurement": "RORγ activity in words (binding assay)", "setting": "[8]", "result": "loss of activity"}]}]}
